# According to patent US7754064B2, “Methods and apparatus for the on-site production of hydrogen peroxide” (Eltron Research & Development, priority 2006, dated 2010):
# Assays:
# biofouling = settings: cited from earlier work
# Pseudomonas cepacia = settings: alkaline solutions of 1000 ppm H2O2, filtration units
# Vibrio hollisae = settings: 20° C., 3-50 ppm H2O2, 6-30 minutes exposure
# Description: A stock culture of Vibrio hollisae was diluted to 1×10-5 with micropore filtered seawater (FSW). The dilution was calculated to yield a sample density of roughly 350 CFUs/mL after 48 hr of grow up. The experimental matrix consisted of peroxide concentration versus exposure time. The bacteria were exposed to the peroxide in liquid cultures, and then the treated bacteria were plated onto agar plates and colony counts done at 24 and 48 hrs. Data were analyzed for LD-100 conditions for maximal effect at lowest concentration and shortest exposure time. Six tubes of 5 mL bacterial culture were prepared. […] A control sample containing NO peroxide was also prepared. At each treatment exposure time point (6, 10, 15, and 30 minutes respectively), 1 mL was removed from each tube and filtered through a mixed cellulose ester filter (0.45 micron pore size, 47 mm dia., Fisher #09-719-1A). Each filter was then placed onto a TCBS (thiosulfate, citrate, bile, and sucrose) media plate and incubated for 48 hr at room temperature (23° C.). Standard colony counts were then made for the entire filter for each treatment condition. The procedure was repeated in triplicate. For each repetition, three separate samples (batches) were prepared and two duplicate trials were run for each batch sample. The results were statistically analyzed using ANOVA and paired student t-test paired comparisons. […]
# Perkinsus marinus = settings: treatment time 30 minutes, four trials
# Description: The final series of trials explored the effectiveness of the treatment against the protozoan Perkinsus marinus which is pathogenic to shellfish and causes the disease Dermo. Essentially the same protocol used for QPX was adapted to Perkinsus and represented a novel method of determining Perkinsus viability after disinfection treatments. Here four duplicate trials were run, again with a treatment time of 30 minutes.
# Description for QPX (Quahog Parasite-X): For the QPX studies, a stock QPX culture (Quahog Parasite-X, a protista slime mold causing shellfish disease) was washed three times in sterile nature seawater (NSW) to remove the nutrient media and disperse the encapsulating mucous mass. The washed sample was then re-suspended in sterile NSW (working culture). A sample aliquot was removed and diluted (1:1) in sterile NSW to determine the actual cell density. […] A control sample with NO peroxide in the treatment solution was also prepared. […] After incubation (48 hrs) the remainder of the innocula were centrifiged at 10,000 G for 2 minutes. All fluid was removed from the tube to leave a final volume of 100 μL. Propidium iodide (100 μL; 20 g/mL) was added to each tube and allowed to sit for 30 minutes in the dark at room temperature. The tubes were then centrifuged (10,000 G for 2 minutes) and the resulting pellet washed three times with filtered NSW (250 μL). After the third wash, 200 μL of fluid was removed from each tube and the pellet was re-suspended in the remaining 50 μL of fluid. The fluids generated from this preparation were added to a Neubauer hemocytometer counting chamber and the cell concentrations were determined between treatments. […]
# Excerpt for mixed plankton: This study largely entailed LD50 and LD100 lethality screening of the target chemistry produced by the electrolytic system under development to natural marine organisms. Specifically, the work focused on organisms with sizes of less than 100 μm as larger organisms can be readily eliminated by other technologies (screening or hydrocyclones). Within this size regime normal crustaceans, planktons, and etc. obtained by trawling were targeted. […] For the trawled organisms and the protozoan, destruction was noted by lack of motility.
# Mixed indigenous zooplankton (these provided random samples of a variety of organisms as might be encountered in ballast water) were obtained by plankton trawls from the waters off Woods Hole, Mass. and the toxicity assays focused on zooplankton (such as dinoflagellates which are less prone to sedimentation than say diatoms) where viability could be readily assessed through motility monitoring. After the samples were collected they were counted and separated into sample populations under a dissecting scope with a low heat lamp using standard techniques. […]
# Toxicity studies were performed on the targeted plankton samples by exposing them to synthetic cell product and monitored until mortality occurred. […]
smiles,measurement,setting,value
OO [hydrogen peroxide],time*dosage factor for plankton kill,"mixed plankton; mixed plankton, 4, 10 and 20° C., from LD-50 and LD-100, averaged over four concentrations",1000 to 3000 ppm min.
same,LD50's as percent of 100% mortality times,mixed plankton; mixed zooplankton in natural seawater with added H2O2,40-50%
same,concentration typically required for sufficient effectiveness in sterilization,"biofouling; industrial disinfection (powerplant biofouling, sewage treatment)",50-200 ppm
same,concentration that can be effective towards fouling control,biofouling; recent data,2 ppm
same,Pseudomonas cepacia eliminated,Pseudomonas cepacia,more than 100%
same,log kill of Pseudomonas cepacia,Pseudomonas cepacia,7 log
same,average viable cell count,"QPX (Quahog Parasite-X); 10 ppm H2O2, 30 min., 20° C., average of two trials",430 cells/L
same,resistance to the treatment compared with general plankton and Vibrio ssp.,"QPX (Quahog Parasite-X); 30 minutes treatment, 0-150 ppm",slightly more resistant
same,time dosage values sufficient to achieve 2 log kills (99%),Vibrio hollisae,1000 to 2000 ppm min.
same,time*dosage values sufficient to reduce occurrence of Perkinsus to hinder spread of disease,Perkinsus marinus,1500 to 5000 ppm
